# In ChEMBL document CHEMBL4390652, “Design, biological evaluation and X-ray crystallography of nanomolar multifunctional ligands targeting simultaneously acetylcholinesterase and glycogen synthase kinase-3” (Eur J Med Chem, 2019):
# pIC50: −log10 of the molar value.
# Key:
# [1] = target: Serine/threonine-protein kinase PLK2 (Homo sapiens) (UniProt Q9NYY3); assay: Binding affinity to wild-type human partial length PLK2 (H58 to F354 residues) expressed in mammalian expression system assessed as residual binding level at 10 uM by Kinomescan method relative to control
# Sequence of Serine/threonine-protein kinase PLK2 (Homo sapiens) (Q9NYY3 whole entry, looked up, the tested form may be a part): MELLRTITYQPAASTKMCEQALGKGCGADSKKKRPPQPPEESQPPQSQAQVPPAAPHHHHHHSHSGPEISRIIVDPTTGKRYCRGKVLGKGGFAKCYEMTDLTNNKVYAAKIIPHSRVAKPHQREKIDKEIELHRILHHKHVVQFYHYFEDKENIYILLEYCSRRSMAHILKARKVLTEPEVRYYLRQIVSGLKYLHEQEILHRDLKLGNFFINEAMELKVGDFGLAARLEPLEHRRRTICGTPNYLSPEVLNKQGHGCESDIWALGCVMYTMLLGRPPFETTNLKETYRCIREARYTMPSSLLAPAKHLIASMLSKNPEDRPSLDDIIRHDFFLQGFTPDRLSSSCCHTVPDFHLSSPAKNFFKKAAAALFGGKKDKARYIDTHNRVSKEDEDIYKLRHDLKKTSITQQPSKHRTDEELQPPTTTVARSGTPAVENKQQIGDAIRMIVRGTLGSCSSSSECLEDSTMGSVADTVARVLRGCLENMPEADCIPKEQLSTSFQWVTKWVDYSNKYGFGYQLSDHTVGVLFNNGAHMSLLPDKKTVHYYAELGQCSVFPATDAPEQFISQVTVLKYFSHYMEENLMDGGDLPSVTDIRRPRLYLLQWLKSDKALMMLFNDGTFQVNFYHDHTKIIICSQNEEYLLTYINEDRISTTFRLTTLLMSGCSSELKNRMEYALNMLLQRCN
# [2] = target: Mitogen-activated protein kinase 1 (Homo sapiens) (UniProt P28482); assay: Binding affinity to wild-type human full length ERK2 (M1 to S360 residues) expressed in bacterial expression system assessed as residual binding level at 10 uM by Kinomescan method relative to control
# [3] = target: Mitogen-activated protein kinase kinase kinase kinase 3 (Homo sapiens) (UniProt Q8IVH8); assay: Binding affinity to wild-type human partial length MAP4K3 (M1 to D301 residues) expressed in bacterial expression system assessed as residual binding level at 10 uM by Kinomescan method relative to control
# Sequence of Mitogen-activated protein kinase kinase kinase kinase 3 (Homo sapiens) (Q8IVH8 whole entry, the tested form may be a part): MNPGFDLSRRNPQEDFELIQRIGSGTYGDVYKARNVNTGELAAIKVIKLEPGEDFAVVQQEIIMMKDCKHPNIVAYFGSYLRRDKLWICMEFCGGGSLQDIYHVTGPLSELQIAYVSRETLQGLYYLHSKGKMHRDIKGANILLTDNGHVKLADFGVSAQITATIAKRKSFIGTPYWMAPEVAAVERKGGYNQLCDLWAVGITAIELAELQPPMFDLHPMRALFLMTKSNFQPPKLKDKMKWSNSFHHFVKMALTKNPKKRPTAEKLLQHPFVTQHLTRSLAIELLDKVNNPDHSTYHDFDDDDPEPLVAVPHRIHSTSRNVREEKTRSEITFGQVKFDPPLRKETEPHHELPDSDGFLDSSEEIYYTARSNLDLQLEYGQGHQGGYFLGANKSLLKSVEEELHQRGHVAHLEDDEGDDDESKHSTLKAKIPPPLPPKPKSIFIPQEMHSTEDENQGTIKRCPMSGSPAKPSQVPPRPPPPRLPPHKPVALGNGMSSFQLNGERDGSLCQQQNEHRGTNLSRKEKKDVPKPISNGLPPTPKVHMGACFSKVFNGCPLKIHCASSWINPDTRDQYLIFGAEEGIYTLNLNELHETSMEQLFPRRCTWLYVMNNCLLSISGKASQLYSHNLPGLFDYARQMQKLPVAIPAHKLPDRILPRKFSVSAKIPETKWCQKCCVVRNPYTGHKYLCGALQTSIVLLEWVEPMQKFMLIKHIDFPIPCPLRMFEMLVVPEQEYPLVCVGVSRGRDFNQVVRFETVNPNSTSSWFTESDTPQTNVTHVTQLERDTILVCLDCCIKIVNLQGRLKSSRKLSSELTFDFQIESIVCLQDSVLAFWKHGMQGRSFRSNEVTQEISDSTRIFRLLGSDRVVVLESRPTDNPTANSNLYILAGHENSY
# [4] = target: MAP kinase-activated protein kinase 2 (Homo sapiens) (UniProt P49137); assay: Binding affinity to wild-type human partial length MAPKAPK2 (V48 to D345 residues) expressed in bacterial expression system assessed as residual binding level at 10 uM by Kinomescan method relative to control
# [5] = test system: Receptor-type tyrosine-protein kinase FLT3 (Homo sapiens), P36888 [D835H]; assay: Binding affinity to human partial length FLT3 D835H mutant (V592 to Y969 residues) expressed in bacterial expression system assessed as residual binding level at 10 uM by Kinomescan method relative to control
# [6] = target: Casein kinase I isoform gamma-2 (Homo sapiens) (UniProt P78368); assay: Binding affinity to wild-type human full length CSNK1G2 (M1 to K415 residues) expressed in bacterial expression system assessed as residual binding level at 10 uM by Kinomescan method relative to control
# Sequence of Casein kinase I isoform gamma-2 (Homo sapiens) (P78368 whole entry, looked up, the tested form may be a part, canonical isoform): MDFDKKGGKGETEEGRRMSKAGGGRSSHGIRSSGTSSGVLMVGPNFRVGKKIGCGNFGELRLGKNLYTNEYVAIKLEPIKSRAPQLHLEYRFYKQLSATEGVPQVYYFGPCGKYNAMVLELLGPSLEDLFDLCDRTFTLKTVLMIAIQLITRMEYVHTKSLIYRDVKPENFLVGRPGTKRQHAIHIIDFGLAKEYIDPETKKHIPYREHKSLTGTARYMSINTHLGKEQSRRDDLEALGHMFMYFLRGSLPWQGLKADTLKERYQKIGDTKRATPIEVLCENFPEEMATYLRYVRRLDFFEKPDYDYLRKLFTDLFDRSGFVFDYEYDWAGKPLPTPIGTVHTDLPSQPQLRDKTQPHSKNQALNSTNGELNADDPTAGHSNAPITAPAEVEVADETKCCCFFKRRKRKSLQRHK
# [7] = target: Ephrin type-A receptor 7 (Homo sapiens) (UniProt Q15375); assay: Binding affinity to wild-type human partial length EPHA7 (Y608 to S912 residues) expressed in bacterial expression system assessed as residual binding level at 10 uM by Kinomescan method relative to control
# [8] = target: Tyrosine-protein kinase ABL1 (Homo sapiens) (UniProt P00519); assay: Binding affinity to wild-type human phosphorylated ABL1 (S229 to K512 residues) expressed in mammalian expression system assessed as residual binding level at 10 uM by Kinomescan method relative to control
# Sequence of Tyrosine-protein kinase ABL1 (Homo sapiens) (P00519 whole entry, the tested form may be a part): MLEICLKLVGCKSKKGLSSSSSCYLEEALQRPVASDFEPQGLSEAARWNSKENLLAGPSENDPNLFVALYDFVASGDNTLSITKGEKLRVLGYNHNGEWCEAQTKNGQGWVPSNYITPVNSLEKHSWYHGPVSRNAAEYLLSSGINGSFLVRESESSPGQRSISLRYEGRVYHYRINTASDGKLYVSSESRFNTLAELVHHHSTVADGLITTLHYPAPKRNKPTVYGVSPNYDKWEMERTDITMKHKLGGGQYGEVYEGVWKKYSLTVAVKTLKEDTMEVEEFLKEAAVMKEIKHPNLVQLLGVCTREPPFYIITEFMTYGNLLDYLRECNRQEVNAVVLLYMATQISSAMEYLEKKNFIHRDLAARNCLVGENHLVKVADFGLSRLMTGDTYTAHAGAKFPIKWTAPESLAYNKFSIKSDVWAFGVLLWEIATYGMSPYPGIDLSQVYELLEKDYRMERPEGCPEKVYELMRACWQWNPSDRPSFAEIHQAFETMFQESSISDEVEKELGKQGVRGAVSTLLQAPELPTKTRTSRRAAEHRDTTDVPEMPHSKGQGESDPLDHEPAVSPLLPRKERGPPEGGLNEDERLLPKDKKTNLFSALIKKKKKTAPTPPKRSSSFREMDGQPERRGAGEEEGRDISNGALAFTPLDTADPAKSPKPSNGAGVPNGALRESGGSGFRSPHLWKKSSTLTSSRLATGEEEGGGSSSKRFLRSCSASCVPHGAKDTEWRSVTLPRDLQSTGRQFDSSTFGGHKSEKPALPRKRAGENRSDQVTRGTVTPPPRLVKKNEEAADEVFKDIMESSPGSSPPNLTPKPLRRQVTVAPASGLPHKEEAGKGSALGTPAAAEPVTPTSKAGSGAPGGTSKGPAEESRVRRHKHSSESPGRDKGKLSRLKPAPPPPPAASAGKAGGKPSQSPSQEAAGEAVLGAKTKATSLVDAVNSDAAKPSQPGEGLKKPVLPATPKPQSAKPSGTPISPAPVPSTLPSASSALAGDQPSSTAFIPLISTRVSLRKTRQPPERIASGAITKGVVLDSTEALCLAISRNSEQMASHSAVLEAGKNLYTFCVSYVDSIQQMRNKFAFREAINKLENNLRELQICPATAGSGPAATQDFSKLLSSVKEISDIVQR
# [9] = target: Serine/threonine-protein kinase tousled-like 2 (Homo sapiens) (UniProt Q86UE8); assay: Binding affinity to wild-type human partial length TLK2 (E424 to N749 residues) expressed in bacterial expression system assessed as residual binding level at 10 uM by Kinomescan method relative to control
# HCT-116 = assay: Cytotoxicity against human HCT116 cells assessed as growth inhibition incubated for 48 hrs by Hoechst 33342 staining based assay; type: cell-based; settings: HCT-116, 48 h
# [10] = target: Serine/threonine-protein kinase MARK2 (Homo sapiens) (UniProt Q7KZI7); assay: Binding affinity to wild-type human partial length MARK2 (M1 to R450 residues) expressed in bacterial expression system assessed as residual binding level at 10 uM by Kinomescan method relative to control
# Sequence of Serine/threonine-protein kinase MARK2 (Homo sapiens) (Q7KZI7 whole entry, the tested form may be a part): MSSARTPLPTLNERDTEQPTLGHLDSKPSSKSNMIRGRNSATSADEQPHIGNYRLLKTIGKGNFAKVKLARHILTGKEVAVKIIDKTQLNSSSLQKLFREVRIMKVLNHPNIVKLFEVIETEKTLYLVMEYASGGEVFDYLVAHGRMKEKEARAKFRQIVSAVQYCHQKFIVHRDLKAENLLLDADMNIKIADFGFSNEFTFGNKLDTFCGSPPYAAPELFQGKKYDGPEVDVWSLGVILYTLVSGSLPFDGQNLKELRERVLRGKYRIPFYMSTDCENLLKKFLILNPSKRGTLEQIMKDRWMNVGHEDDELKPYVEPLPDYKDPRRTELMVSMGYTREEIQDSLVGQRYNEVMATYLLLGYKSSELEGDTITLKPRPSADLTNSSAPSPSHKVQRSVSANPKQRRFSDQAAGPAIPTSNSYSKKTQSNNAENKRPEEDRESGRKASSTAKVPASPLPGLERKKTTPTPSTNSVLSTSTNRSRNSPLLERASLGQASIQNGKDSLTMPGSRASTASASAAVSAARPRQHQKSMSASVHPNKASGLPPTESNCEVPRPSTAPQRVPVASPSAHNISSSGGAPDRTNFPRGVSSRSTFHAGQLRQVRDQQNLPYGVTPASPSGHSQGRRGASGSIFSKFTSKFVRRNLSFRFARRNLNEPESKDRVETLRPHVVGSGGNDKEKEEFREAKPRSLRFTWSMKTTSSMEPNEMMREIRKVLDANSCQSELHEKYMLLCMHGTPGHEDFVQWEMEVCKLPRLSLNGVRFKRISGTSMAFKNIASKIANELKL
# [11] = target: Dual specificity tyrosine-phosphorylation-regulated kinase 1A (Homo sapiens) (UniProt Q13627); assay: Binding affinity to wild-type human partial length DYRK1A (H129 to S509 residues) expressed in mammalian expression system assessed as residual binding level at 10 uM by Kinomescan method relative to control
# [12] = target: Serine/threonine-protein kinase ICK (Homo sapiens) (UniProt Q9UPZ9); assay: Binding affinity to wild-type human partial length ICK (M1 to P314 residues) expressed in mammalian expression system assessed as residual binding level at 10 uM by Kinomescan method relative to control
# [13] = target: Tyrosine-protein kinase ABL1 (Homo sapiens) (UniProt P00519); assay: Binding affinity to wild-type human non-phosphorylated ABL1 (S229 to K512 residues) expressed in mammalian expression system assessed as residual binding level at 10 uM by Kinomescan method relative to control
# [14] = target: SRSF protein kinase 2 (Homo sapiens) (UniProt P78362); assay: Binding affinity to wild-type human full length SRPK2 (M1 to S686 residues) expressed in bacterial expression system assessed as residual binding level at 10 uM by Kinomescan method relative to control
# Sequence of SRSF protein kinase 2 (Homo sapiens) (P78362 whole entry, looked up, the tested form may be a part): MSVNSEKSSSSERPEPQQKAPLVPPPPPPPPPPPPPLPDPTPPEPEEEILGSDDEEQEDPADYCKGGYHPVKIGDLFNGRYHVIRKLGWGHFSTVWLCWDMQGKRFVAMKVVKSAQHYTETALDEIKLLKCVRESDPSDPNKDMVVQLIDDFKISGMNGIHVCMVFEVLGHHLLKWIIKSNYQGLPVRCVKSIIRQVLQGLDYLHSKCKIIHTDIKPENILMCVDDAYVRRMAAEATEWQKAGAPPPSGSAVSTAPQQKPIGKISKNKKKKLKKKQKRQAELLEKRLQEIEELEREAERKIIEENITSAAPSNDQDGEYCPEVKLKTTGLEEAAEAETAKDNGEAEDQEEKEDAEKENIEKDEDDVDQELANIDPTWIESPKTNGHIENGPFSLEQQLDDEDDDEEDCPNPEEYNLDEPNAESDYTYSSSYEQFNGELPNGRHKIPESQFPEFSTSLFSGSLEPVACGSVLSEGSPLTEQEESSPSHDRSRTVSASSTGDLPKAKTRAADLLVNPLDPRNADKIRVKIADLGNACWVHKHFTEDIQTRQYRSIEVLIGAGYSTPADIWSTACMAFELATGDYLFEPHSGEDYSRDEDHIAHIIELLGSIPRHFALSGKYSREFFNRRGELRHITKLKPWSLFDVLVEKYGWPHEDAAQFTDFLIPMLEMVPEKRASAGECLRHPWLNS
# [15] = target: Non-receptor tyrosine-protein kinase TYK2 (Homo sapiens) (UniProt P29597); assay: Binding affinity to wild-type human partial length TYK2 JH1 catalytic domain (V877 to C1187 residues) expressed in mammalian expression system assessed as residual binding level at 10 uM by Kinomescan method relative to control
# [16] = target: Cyclin-dependent kinase 5/CDK5 activator 1 (Homo sapiens, UniProt Q00535); type: protein-complex assay
# Description: Inhibition of human recombinant CDK5/p25 using histone H1 as substrate in presence of [gamma-33P]ATP incubated for 30 mins by liquid scintillation counting assay
# [17] = target: Receptor-type tyrosine-protein kinase FLT3 (Homo sapiens) (UniProt P36888); assay: Binding affinity to wild-type human partial length autoinhibited FLT3 (H564 to Y969 residues) expressed in mammalian expression system assessed as residual binding level at 10 uM by Kinomescan method relative to control
# [18] = target: Cyclin-dependent kinase 16 (Homo sapiens) (UniProt Q00536); assay: Binding affinity to wild-type human partial length PCTK1 (G160 to A474 residues) expressed in mammalian expression system assessed as residual binding level at 10 uM by Kinomescan method relative to control
# [19] = target: Cyclin-dependent kinase 7 (Homo sapiens) (UniProt P50613); assay: Binding affinity to wild-type human full length CDK7 (M1 to L344 residues) expressed in mammalian expression system assessed as residual binding level at 10 uM by Kinomescan method relative to control
# Sequence of Cyclin-dependent kinase 7 (Homo sapiens) (P50613 whole entry, the tested form may be a part): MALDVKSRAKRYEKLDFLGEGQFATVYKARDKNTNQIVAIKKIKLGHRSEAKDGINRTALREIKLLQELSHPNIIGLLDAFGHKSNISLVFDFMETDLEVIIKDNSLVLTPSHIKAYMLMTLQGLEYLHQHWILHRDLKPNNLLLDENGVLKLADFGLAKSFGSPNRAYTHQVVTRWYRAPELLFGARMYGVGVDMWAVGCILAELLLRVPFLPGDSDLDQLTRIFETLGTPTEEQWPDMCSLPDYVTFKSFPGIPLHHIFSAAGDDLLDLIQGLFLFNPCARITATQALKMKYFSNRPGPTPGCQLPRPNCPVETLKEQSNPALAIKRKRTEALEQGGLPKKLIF
# [20] = target: Tyrosine-protein kinase HCK (Homo sapiens) (UniProt P08631); assay: Binding affinity to wild-type human full length HCK (M22 to P526 residues) expressed in bacterial expression system assessed as residual binding level at 10 uM by Kinomescan method relative to control
# [21] = target: Serine/threonine-protein kinase OSR1 (Homo sapiens) (UniProt O95747); assay: Binding affinity to wild-type human full length OSR1 (M1 to S527 residues) expressed in mammalian expression system assessed as residual binding level at 10 uM by Kinomescan method relative to control
# [22] = target: Cyclin-dependent kinase-like 3 (Homo sapiens) (UniProt Q8IVW4); assay: Binding affinity to wild-type human partial length CDKL3 (M1 to D327 residues) expressed in bacterial expression system assessed as residual binding level at 10 uM by Kinomescan method relative to control
# [23] = target: Dual specificity protein kinase CLK4 (Homo sapiens) (UniProt Q9HAZ1); assay: Binding affinity to wild-type human partial length CLK4 (R135 to K481 residues) expressed in bacterial expression system assessed as residual binding level at 10 uM by Kinomescan method relative to control
# [24] = target: Calcium/calmodulin-dependent protein kinase type II subunit alpha (Homo sapiens) (UniProt Q9UQM7); assay: Binding affinity to wild-type human partial length CAMK2A (M1 to K328 residues) expressed in bacterial expression system assessed as residual binding level at 10 uM by Kinomescan method relative to control
structure (smiles),measurement,setting,value
O=C(Nc1cc(-c2cn(CCNc3c4c(nc5ccccc35)CCCC4)nn2)ccn1)Nc1cccc2c1C1CCCCN1C2=O (racemic),Activity,[1],80%
same,Activity,[2],94%
same,Activity,[3],21%
same,Activity,[4],100%
same,Activity,[5],3.4%
same,Activity,[6],68%
same,Activity,[7],76%
same,Activity,[8],0.6%
same,Activity,[9],37%
same,pIC50,HCT-116,5.52
same,Activity,[10],46%
same,Activity,[11],2.4%
same,Activity,[12],7.5%
same,Activity,[13],1.6%
same,Activity,[14],35%
same,Activity,[15],39%
same,pIC50,[16],6.10
same,Activity,[17],12%
same,Activity,[18],4.3%
same,Activity,[19],2.3%
same,Activity,[20],100%
same,Activity,[21],100%
same,Activity,[22],0%
same,Activity,[23],2.8%
same,Activity,[24],79%
